Values quoted from earlier work in patent US20250114350A1, “INHIBITORS OF […] AS ANTIFUNGAL AGENTS” (Regents of the University of Minnesota, priority 2023, published 2025).

Assays:
[1] = system: C. neoformans FTase (CnFTase); details: Hast et al. 2011; cited from earlier work
[2] = system: C. neoformans; details: Hast et al. 2011; cited from earlier work

For N#Cc1ccc(Cn2cncc2CN2CCN(c3cccc(Cl)c3)C(=O)C2)cc1 [L-778,123], the “inhibition of C. neoformans FTase (CnFTase)” value [1] is listed as “modest inhibition” and the antifungal activity [2] is listed as “did not have antifungal activity”.
